Here are results for 1 compound from EP0377521B1, “High yield sodium hydrosulfite generation” (MORTON INTERNATIONAL, INC., priority 1989, dated 1990).

The series in a line: NaBH₄ hydrolysis half-life vs. pH. Type of series: physicochemical. The conditions noted are these: for HALF-LIFE: hydrolysis. The method, then: The pH flow profile becomes significant when related to the hydrolysis rate of the NaBH₄. Referring to the Table set forth below, the half-life of NaBH₄ is 3000 times longer at a pH of 6.0 compared to a pH of 2.5. Therefore, if the BOROL solution is added to a process stream having a pH of 2.5, the extent of the hydrolysis of the NaBH₄ is greater than if the BOROL solution and NaOH are added first to said process stream having a pH of 6.2 and the pH of said process stream is increased to 13.0, where the rate of hydrolysis of NaBH₄ is very slow (42.6 days). TABLE
TEMPERATURE = 25°C (77°F) LOG₁₀ (t½ ) = pH - (0.034 T - 1.92) [formula] t = MINUTES T = °K

Structures are written as SMILES.

`[BH4-].[Na+]` [NaBH₄, sodium borohydride] yielded an HALF-LIFE (pH 2.5, 25°C (77°F)) of 2e-06 min; an HALF-LIFE (pH 4.0, 25°C (77°F)) of 6.17e-05 min; an HALF-LIFE (pH 5.0, 25°C (77°F)) of 0.000617 min; an HALF-LIFE (pH 5.5, 25°C (77°F)) of 0.002 min; an HALF-LIFE (pH 6.0, 25°C (77°F)) of 0.00617 min; an HALF-LIFE (pH 6.5, 25°C (77°F)) of 0.02 min. The same compound gave an HALF-LIFE (pH 7.0, 25°C (77°F)) of 0.0617 min; an HALF-LIFE (pH 8.0, 25°C (77°F)) of 0.613 min; an HALF-LIFE (pH 9.0, 25°C (77°F)) of 6.1 min; an HALF-LIFE (pH 10.0, 25°C (77°F)) of 61 min; an HALF-LIFE (pH 12.0, 25°C (77°F)) of 6190 min; an HALF-LIFE (pH 13.0, 25°C (77°F)) of 61300 min. Further, the “half-life at a pH of 6.0 compared to a pH of 2.5” value (ratio of hydrolysis half-lives, pH 6.0 vs pH 2.5) is 3000 times longer.
